Laboratory results reported in patent US7989430B2, “Antibacterial agents” (priority 2005, dated 2011).
Converted amounts (≈) assume the structure as drawn.

Legend:
M. tuberculosis H37Rv [1] = test: M. tuberculosis H37Rv MIC assay (whole-cell); type: cell-based, Mycobacterium tuberculosis
[2] = 50% aq TFA, 3 h
MbtA = MbtA (Mycobacterium tuberculosis, UniProt P71716); settings: data not shown
[3] = Chemical stability on storage; settings: salt form prepared in Example 1 vs free acid
M. tuberculosis H37Rv [4] = settings: Ferreras et al., Nature Chem. Biol. 2005, likely the free acid form; cited from earlier work

Chain of MbtA (P71716 whole entry): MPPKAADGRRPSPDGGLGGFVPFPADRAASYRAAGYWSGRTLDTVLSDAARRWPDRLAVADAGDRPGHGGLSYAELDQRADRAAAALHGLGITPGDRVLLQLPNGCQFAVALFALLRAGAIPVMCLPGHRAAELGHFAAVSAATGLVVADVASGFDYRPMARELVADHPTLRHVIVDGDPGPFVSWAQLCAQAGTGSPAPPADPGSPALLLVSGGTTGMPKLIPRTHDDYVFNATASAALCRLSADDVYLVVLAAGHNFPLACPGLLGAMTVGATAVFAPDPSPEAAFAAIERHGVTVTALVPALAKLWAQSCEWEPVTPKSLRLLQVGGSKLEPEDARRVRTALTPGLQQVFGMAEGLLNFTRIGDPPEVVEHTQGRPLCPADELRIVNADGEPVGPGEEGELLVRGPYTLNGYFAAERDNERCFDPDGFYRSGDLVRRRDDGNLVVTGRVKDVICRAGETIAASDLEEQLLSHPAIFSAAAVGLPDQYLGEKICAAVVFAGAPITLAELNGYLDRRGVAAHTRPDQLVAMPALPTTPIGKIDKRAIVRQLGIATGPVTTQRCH

SMILES: Nc1ncnc2c1ncn2[C@@H]1O[C@H](COS(=O)(=O)NC(=O)c2ccc(O)c(O)c2)[C@@H](O)[C@H]1O
- melting point: > 190 °C (dec.)

SMILES: CCN(CC)CC.Nc1ncnc2c1ncn2[C@H]1C[C@H](O)[C@@H](COS(=O)(=O)NC(=O)c2ccccc2O)O1 [Example 42, 2′-Deoxy-5′-O—[N-(2-hydroxybenzoyl)sulfamoyl]-adenosine triethylammonium salt]
- activity in whole-cell assay of M. tuberculosis (M. tuberculosis H37Rv [1]; data not shown): potent activity
- stability under acidic conditions [2]: unstable
- activity in the in vitro enzyme assay (MbtA): potent activity

SMILES: CCN(CC)CC.Nc1ncnc2c1ncn2[C@@H]1O[C@H](COS(=O)(=O)NC(=O)c2ccccc2O)[C@@H](O)[C@H]1O [Example 1, 5′-O—(N-(2-Hydroxybenzoyl)sulfamoyl)-adenosine triethylammonium salt]
- stability relative to the free acid [3]: significantly more stable
- potency against M. tuberculosis H37Rv relative to the free acid (M. tuberculosis H37Rv [1]; salt form vs free acid): about 28 times

SMILES: Nc1ncnc2c1ncn2[C@@H]1O[C@H](COS(=O)(=O)NC(=O)c2ccccc2O)[C@@H](O)[C@H]1O [Compound 34, 5′-O—(N-(2-hydroxybenzoyl)sulfamoyl)adenosine]
- MIC50 (M. tuberculosis H37Rv [4]): 2.2 µM (≈ 1.03 µg/mL)
